Measured values reported in ChEMBL document CHEMBL3886639, “2,5-disubstituted-pyridyl nicotinic ligands, and methods of use thereof” (2016).

Test: [3H]-Epibatidine Radioligand Binding Assay: Briefly, cultured cells at >80% confluence were removed from their flasks (80 cm^2) with a disposable cell scraper and placed in 10 mL of 50 mM Tris.HCl buffer (pH 7.4, 4 °C.). The cell suspension was centrifuged at 10,000×g for 5 min and the pellet was collected. The cell pellet was then homogenized in 10 mL buffer with a polytron homogenizer and centrifuged at 36,000 g for 10 min at 4 °C. The membrane pellet was resuspended in fresh buffer, and aliquots of the membrane preparation were used for binding assays. The concentration of [3H]-epibatidine used was ~500 pM for competition binding assays. […] Bound and free ligands were separated by vacuum filtration through Whatman GF/C filters treated with 0.5% polyethylenimine. The filter-retained radioactivity was measured by liquid scintillation counting. Specific binding was defined as the difference between total binding and nonspecific binding. Data from competition binding assays were analyzed using Prism 5 (GraphPad Software, San Diego, Calif.).

CCCCC#Cc1cnc(C(F)(F)F)c(OC[C@@H]2CCN2)c1
Ki: > 100 µM
